Source: DBAASP
Values after ≈ are worked out from the molar mass of the structure shown.

How the values were obtained:
Assay in all cases: ≥ marks a high value that may be exact or a test limit, other limits are often not marked, values filed in µg/mL are converted to µM
[1] = tested on: Escherichia coli ATCC 25922
[2] = tested on: Staphylococcus aureus ATCC 29737
[3] = tested on: Candida albicans ATCC 10231
[4] = tested on: Pseudomonas aeruginosa ATCC 9027
[5] = tested on: Staphylococcus epidermidis ATCC 12228
[6] = tested on: Candida albicans ATCC 90028
[7] = tested on: Staphylococcus aureus USA 100
[8] = tested on: Staphylococcus aureus USA 300
[9] = tested on: Salmonella enterica subsp. enterica serovar Enteritidis ATCC 13076
[10] = tested on: Streptococcus mutans ATCC 25175
[11] = tested on: Staphylococcus aureus ATCC 15752
[12] = tested on: Escherichia coli ATCC 27325
[13] = tested on: Bacillus subtilis ATCC 62037
[14] = tested on: Pseudomonas putida ATCC 17426
[15] = tested on: Cryptococcus neoformans ATCC 34881
[16] = tested on: Saccharomyces cerevisiae ATCC 44774
Escherichia coli BW25113 = tested on: Escherichia coli BW25113
[17] = tested on: Staphylococcus aureus AS1.72
[18] = tested on: Enterococcus faecalis CGMCC 1.595
Bacillus cereus AS1.126 = tested on: Bacillus cereus AS1.126
[19] = tested on: Pseudomonas aeruginosa CGMCC 1.860
Escherichia coli AS1.349 = tested on: Escherichia coli AS1.349
[20] = tested on: Lactococcus lactis AS1.1690
[21] = tested on: Enterococcus faecium CGMCC 1.2334
[22] = tested on: Listeria monocytogenes LO28
[23] = tested on: Cronobacter sakazakii DPC 6440

## CC[C@H](C)[C@H](N)C(=O)N[C@@H](CCCN=C(N)N)C(=O)N[C@H](C(=O)N[C@@H](CCCCN)C(=O)N[C@H](C(=O)N[C@@H](CCCN=C(N)N)C(=O)N[C@H](C(=O)N[C@@H](CCCCN)C(=O)N[C@H](C(=O)N[C@@H](CCCN=C(N)N)C(=O)N[C@H](C(=O)N[C@@H](CCCCN)C(N)=O)C(C)C)[C@@H](C)CC)C(C)C)[C@@H](C)CC)C(C)C [IRVKIRVKIRVK]
[1]
  MIC: 10.3 µM (≈ 15.6 µg/mL)
[2]
  MIC: 20.8 µM (≈ 31.3 µg/mL)
[3]
  MIC: 82.9 µM (≈ 125 µg/mL)
[4]
  MIC: 41.4 µM (≈ 62.5 µg/mL)
[5]
  MIC: 1.33 µM (≈ 2 µg/mL)

## CC(=O)N[C@@H](CCCCN)C(=O)N1CCC[C@H]1C(=O)N[C@H](C(N)=O)C(C)C [KPV]
[6]
  MIC: ≥ 100 µM
[7]
  MIC: ≥ 100 µM
[8]
  MIC: ≥ 100 µM
[4]
  MIC: > 100 µM

## CC(C)[C@H](NC(=O)[C@H](CCCCN)NC(=O)CNC(=O)CNC(=O)[C@H](CCC(N)=O)NC(=O)[C@H](CCCCN)NC(=O)CNC(=O)[C@H](CCCN=C(N)N)NC(=O)[C@@H](N)CCCCN)C(=O)N[C@@H](CCCN=C(N)N)C(=O)N[C@@H](C)C(=O)N[C@@H](CCCCN)C(=O)N[C@@H](C)C(=O)N[C@@H](CCCCN)C(=O)N[C@H](C(=O)N[C@@H](CCCN=C(N)N)C(=O)N[C@@H](CO)C(=O)N[C@@H](CO)C(=O)O)[C@@H](C)O [KRGKQGGKVRAKAKTRSS]
[9]
  MIC: 8.23 µM (≈ 16 µg/mL)
[10]
  MIC: 16.5 µM (≈ 32 µg/mL)
[11]
  MIC: 16.5 µM (≈ 32 µg/mL)
[12]
  MIC: 4.12 µM (≈ 8 µg/mL)
[13]
  MIC: 8.23 µM (≈ 16 µg/mL)
[14]
  MIC: 8.23 µM (≈ 16 µg/mL)
[3]
  MIC: 8.23 µM (≈ 16 µg/mL)
[15]
  MIC: 4.12 µM (≈ 8 µg/mL)
[16]
  MIC: 8.23 µM (≈ 16 µg/mL)

## CC(C)C[C@H](NC(=O)CNC(=O)[C@H](C)NC(=O)[C@@H](N)CCCN=C(N)N)C(=O)N[C@@H](CCC(N)=O)C(=O)N[C@@H](Cc1ccccc1)C(=O)N1CCC[C@H]1C(=O)N[C@H](C(=O)NCC(=O)N[C@@H](CCCCN)C(=O)N[C@@H](CC(C)C)C(=O)N[C@@H](CC(C)C)C(=O)N[C@@H](CCCCN)C(=O)N[C@@H](CCCCN)C(=O)N[C@@H](CC(C)C)C(=O)N[C@@H](CC(C)C)C(=O)N[C@@H](CCCCN)C(=O)N[C@@H](CCCN=C(N)N)C(=O)N[C@@H](CC(C)C)C(=O)N[C@@H](CCCCN)C(=O)N[C@@H](CCCN=C(N)N)C(=O)O)C(C)C [RAGLQFPVGKLLKKLLKRLKR]
[9]
  MIC: 0.406 µM (≈ 1 µg/mL)
[10]
  MIC: 0.812 µM (≈ 2 µg/mL)
[11]
  MIC: 0.812 µM (≈ 2 µg/mL)
[12]
  MIC: 0.812 µM (≈ 2 µg/mL)
[13]
  MIC: 0.812 µM (≈ 2 µg/mL)
[14]
  MIC: 0.812 µM (≈ 2 µg/mL)
[3]
  MIC: 0.812 µM (≈ 2 µg/mL)
[15]
  MIC: 0.812 µM (≈ 2 µg/mL)
[16]
  MIC: 0.812 µM (≈ 2 µg/mL)

## CC[C@H](C)[C@H](NC(=O)[C@@H]1CCCN1C(=O)[C@@H]1CCCN1C(=O)[C@H](CCCN=C(N)N)NC(=O)[C@H](Cc1ccccc1)NC(=O)[C@@H](N)CCCN=C(N)N)C(=O)N[C@@H](CCCN=C(N)N)C(=O)N[C@@H](CCCN=C(N)N)C(=O)N1CCC[C@H]1C(=O)N1CCC[C@H]1C(=O)N[C@H](C(=O)N[C@@H](CCCN=C(N)N)C(=O)N1CCC[C@H]1C(=O)N1CCC[C@H]1C(=O)N[C@@H](Cc1ccccc1)C(=O)N[C@@H](Cc1ccc(O)cc1)C(=O)N[C@@H](Cc1c[nH]c2ccccc12)C(=O)O)[C@@H](C)CC [RFRPPIRRPPIRPPFYW]
Escherichia coli BW25113
  MIC: 16 µM (≈ 36 µg/mL)

## C[C@H](NC(=O)[C@H](CCCN=C(N)N)NC(=O)[C@H](Cc1cnc[nH]1)NC(=O)[C@H](Cc1c[nH]c2ccccc12)NC(=O)[C@H](Cc1ccccc1)NC(=O)[C@H](CCCN=C(N)N)NC(=O)[C@@H](N)CCCN=C(N)N)C(=O)N[C@@H](Cc1cnc[nH]1)C(=O)O [RRFWHRAH]
[17]
  MIC: ≥ 100 µM
[18]
  MIC: ≥ 100 µM
Bacillus cereus AS1.126
  MIC: ≥ 100 µM
[19]
  MIC: ≥ 100 µM
Escherichia coli AS1.349
  MIC: ≥ 100 µM
[20]
  MIC: ≥ 100 µM
[21]
  MIC: ≥ 100 µM

## CC(C)C[C@H](NC(=O)[C@H](CCCCN)NC(=O)[C@H](CCCN=C(N)N)NC(=O)[C@H](Cc1cnc[nH]1)NC(=O)[C@H](C)NC(=O)[C@H](CCCN=C(N)N)NC(=O)[C@H](Cc1cnc[nH]1)NC(=O)[C@H](Cc1c[nH]c2ccccc12)NC(=O)[C@H](Cc1ccccc1)NC(=O)[C@H](CCCN=C(N)N)NC(=O)[C@H](CCCN=C(N)N)NC(=O)[C@H](Cc1c[nH]c2ccccc12)NC(=O)[C@H](Cc1cnc[nH]1)NC(=O)[C@H](CCCN=C(N)N)NC(=O)[C@H](Cc1c[nH]c2ccccc12)NC(=O)[C@@H](NC(=O)[C@H](CCCCN)NC(=O)[C@@H](N)CO)C(C)C)C(=O)O [SKVWRHWRRFWHRAHRKL]
[17]
  MIC: 3.13 µM (≈ 7.96 µg/mL)
[18]
  MIC: 1.56 µM (≈ 3.97 µg/mL)
Bacillus cereus AS1.126
  MIC: 3.13 µM (≈ 7.96 µg/mL)
[19]
  MIC: 1.56 µM (≈ 3.97 µg/mL)
Escherichia coli AS1.349
  MIC: 6.25 µM (≈ 15.9 µg/mL)
[20]
  MIC: 3.13 µM (≈ 7.96 µg/mL)
[21]
  MIC: 3.13 µM (≈ 7.96 µg/mL)

## CC(C)[C@H](N)C(=O)N[C@@H](Cc1c[nH]c2ccccc12)C(=O)N[C@@H](CCCN=C(N)N)C(=O)N[C@@H](Cc1cnc[nH]1)C(=O)N[C@@H](Cc1c[nH]c2ccccc12)C(=O)N[C@@H](CCCN=C(N)N)C(=O)N[C@@H](CCCN=C(N)N)C(=O)N[C@@H](Cc1ccccc1)C(=O)N[C@@H](Cc1c[nH]c2ccccc12)C(=O)N[C@@H](Cc1cnc[nH]1)C(=O)N[C@@H](CCCN=C(N)N)C(=O)O [VWRHWRRFWHR]
[17]
  MIC: 3.13 µM (≈ 5.39 µg/mL)
[18]
  MIC: 3.13 µM (≈ 5.39 µg/mL)
Bacillus cereus AS1.126
  MIC: 3.13 µM (≈ 5.39 µg/mL)
[19]
  MIC: 3.13 µM (≈ 5.39 µg/mL)
Escherichia coli AS1.349
  MIC: 6.25 µM (≈ 10.8 µg/mL)
[20]
  MIC: 6.25 µM (≈ 10.8 µg/mL)
[21]
  MIC: 3.13 µM (≈ 5.39 µg/mL)

## CC[C@H](C)[C@H](NC(=O)[C@@H](N)Cc1c[nH]c2ccccc12)C(=O)N[C@@H](CCC(N)=O)C(=O)N1CCC[C@H]1C(=O)N[C@@H](C)C(=O)N[C@H](C(=O)N[C@@H](C)C(=O)N[C@H](C(=O)N[C@H](C(=O)N1CCC[C@H]1C(=O)N[C@@H](Cc1ccc(O)cc1)C(=O)N[C@H](C(=O)N[C@@H](C)C(=O)N[C@@H](Cc1ccc(O)cc1)C(=O)N[C@@H](CC(C)C)C(=O)O)C(C)C)[C@@H](C)CC)C(C)C)[C@@H](C)O [WIQPATAVIPYVAYL]
[22]
  MIC: ≥ 156 µM
[23]
  MIC: ≥ 625 µM

## CC[C@H](C)[C@H](NC(=O)[C@@H](N)Cc1c[nH]c2ccccc12)C(=O)N[C@@H](CCC(N)=O)C(=O)N1CCC[C@H]1C(=O)N[C@@H](CCCCN)C(=O)N[C@H](C(=O)N[C@@H](CCCCN)C(=O)N[C@H](C(=O)N[C@H](C(=O)N1CCC[C@H]1C(=O)N[C@@H](Cc1c[nH]c2ccccc12)C(=O)N[C@@H](Cc1c[nH]c2ccccc12)C(=O)N[C@@H](Cc1c[nH]c2ccccc12)C(=O)N[C@@H](Cc1c[nH]c2ccccc12)C(=O)N[C@@H](Cc1c[nH]c2ccccc12)C(=O)O)[C@@H](C)CC)C(C)C)[C@@H](C)O [WIQPKTKVIPWWWWW]
[22]
  MIC: 4.88 µM (≈ 10.5 µg/mL)
[23]
  MIC: ≥ 78.1 µM

## CC[C@H](C)[C@H](NC(=O)[C@@H](N)Cc1c[nH]c2ccccc12)C(=O)N[C@@H](CCC(N)=O)C(=O)N1CCC[C@H]1C(=O)N[C@@H](CCCCN)C(=O)N[C@H](C(=O)N[C@@H](CCCCN)C(=O)N[C@H](C(=O)N[C@H](C(=O)N1CCC[C@H]1C(=O)O)[C@@H](C)CC)C(C)C)[C@@H](C)O [WIQPKTKVIP]
[22]
  MIC: ≥ 156 µM
[23]
  MIC: ≥ 625 µM

## NC(=O)[C@H](Cc1c[nH]c2ccccc12)NC(=O)[C@H](Cc1c[nH]c2ccccc12)NC(=O)[C@H](Cc1c[nH]c2ccccc12)NC(=O)[C@@H](N)Cc1c[nH]c2ccccc12 [WWWW]
[7]
  MIC: ≥ 100 µM
